Test results from patent publication US20240197888A1, “SOS1 PROTEIN DEGRADERS, PHARMACEUTICAL COMPOSITIONS THEREOF, AND THEIR THERAPEUTIC APPLICATIONS” (BioTheryX, Inc., priority 2021, published 2024).

Experiments:
Type in all cases: cell-based
[1] = system: H358 (G12C) cells; assay: Cell viability assay (CELLTITER-GLO), H358 cells; details: Homo sapiens, NCI-H358, 72 h, Inhibition of cancerous cells, 3 days incubation, luminescence
Description: (§1) AsPC-1, H358, and SW48 cells were cultured in RPMI 1640 media supplemented with 10% fetal bovine serum, streptomycin, and penicillin. Lovo and SW480 cells were cultured in DMEM media supplemented with 10% fetal bovine serum, streptomycin, and penicillin. The cell lines were plated in their respective medium supplemented with 2.5% fetal bovine serum, streptomycin, and penicillin. All cell lines were plated in white walled 96-well plates at 2,000 cells/well or 384-well plates at 500 cells/well, except Lovo, which were plated at 4,000 or 1,000 cells/well, respectively. The cells were incubated in DMSO (control) or a compound for 3 days at 37° C. under 5% CO2. A CELLTITER-GLO® reagent ([…] was then added to each well. After a 10 min incubation with shaking, luminescence was measured using an ENVISION® multimode plate reader. IC50 values are summarized in Table 1.

[2] = system: SW48 (wt) cells; assay: Cell viability assay (CELLTITER-GLO), SW48 cells; details: Homo sapiens, 72 h, Inhibition of cancerous cells, 3 days incubation, luminescence
Description: as §1

[3] = system: Lovo (G13D) cells; assay: Cell viability assay (CELLTITER-GLO), Lovo cells; details: Homo sapiens, 72 h, Inhibition of cancerous cells, 3 days incubation, luminescence
Description: as §1

[4] = system: SW480 (G12V) cells; assay: Cell viability assay (CELLTITER-GLO), SW480 cells; details: Homo sapiens, 72 h, Inhibition of cancerous cells, 3 days incubation, luminescence
Description: as §1

[5] = system: AsPC-1 (G12D) cells; assay: Cell viability assay (CELLTITER-GLO), AsPC-1 cells; details: Homo sapiens, ASPC1, 72 h, Inhibition of cancerous cells, 3 days incubation, luminescence
Description: as §1

SMILES	IC50 [1] [µM]	IC50 [2] [µM]	IC50 [3] [µM]	IC50 [4] [µM]	IC50 [5] [µM]
COc1cc2c(N[C@H](C)c3cccc(Br)c3)nc(C)nc2cc1OCCCCCCCN1CCC2(CCNCC2)CC1 [Compound A71, (R)-7-((7-(3,9-Diazaspiro[5.5]undecan-3-yl)heptyl)oxy)-N-(1-(3-bromophenyl)-ethyl)-6-methoxy-2-methylquinazolin-4-amine]	2.8	1.4	1.4	1.5	2.7
CNCc1ccccc1-c1csc([C@@H](C)Nc2nc(C)nc3cc(OCCCCCCC(=O)N4CCCCC4)c(OC)cc23)c1 [Compound A68, (R)-7-((6-Methoxy-2-methyl-4-((1-(4-(2-((methylamino)methyl)phenyl)thiophen-2-yl)ethyl)amino)quinazolin-7-yl)oxy)-1-(piperidin-1-yl)heptan-1-one]	0.65	0.55	0.36	0.36	1.5
COc1cc2nc(C)nc(N[C@H](C)c3cc(N)cc(C(F)(F)F)c3)c2cc1OC [reference compound]	> 10	> 10	> 10	> 10	> 10
CNCc1ccccc1-c1csc([C@@H](C)Nc2nc(C)nc3cc(OCCC(C)(C)C)c(OC)cc23)c1 [Compound A62, (R)-7-(3,3-Dimethylbutoxy)-6-methoxy-2-methyl-N-(1-(4-(2-((methylamino)-methyl)phenyl)thiophen-2-yl)ethyl)quinazolin-4-amine]	1.3	0.53	0.5	0.45	1.1
CNCc1ccccc1-c1csc(C(C)Nc2nc(C)nc3cc(OCCCCCCCN4CCC(C(F)(F)F)CC4)c(OC)cc23)c1 (stereo in doubt) [Compound A66, (R)-6-Methoxy-2-methyl-N-(1-(4-(2-((methylamino)methyl)phenyl)thiophen-2-yl)ethyl)-7-((7-(4-(trifluoromethyl)piperidin-1-yl)heptyl)oxy)quinazolin-4-amine]	1.2	0.82	1.1	0.55	2
COc1cc2c(N[C@H](C)c3cccc(Br)c3)nc(C)nc2cc1OCCCCCCCN1CCC2(CC1)CCN(C(=O)OC(C)(C)C)CC2 [Compound A72, Tert-butyl (R)-9-(7-((4-((1-(3-bromophenyl)ethyl)amino)-6-methoxy-2-methyl-quinazolin-7-yl)oxy)heptyl)-3,9-diazaspiro[5.5]undecane-3-carboxylate]	1.1	0.64	0.39	0.48	1
CNCc1ccccc1-c1csc([C@H](C)Nc2nc(C)nc3cc(OCCC(C)(C)C)c(OC)cc23)c1 [Compound A63, (S)-7-(3,3-Dimethylbutoxy)-6-methoxy-2-methyl-N-(1-(4-(2-((methylamino)-methyl)phenyl)thiophen-2-yl)ethyl)quinazolin-4-amine]	1.1	0.53	0.42	0.46	1

The next lines start with the values.

IC50 [1] [µM]	IC50 [2] [µM]	IC50 [3] [µM]	IC50 [4] [µM]	IC50 [5] [µM]	SMILES
1.4	0.98	0.5	0.93	1.3	COc1cc2c(N[C@H](C)c3cccc(Br)c3)nc(C)nc2cc1OCCCCCCCNCCC(F)(F)F [Compound A70, (R)—N-(1-(3-Bromophenyl)ethyl)-6-methoxy-2-methyl-7-((7-((3,3,3-trifluoro-propyl)amino)heptyl)oxy)quinazolin-4-amine]
0.53	0.17	0.24	0.25	0.51	CNCc1ccccc1-c1csc([C@@H](C)Nc2nc(C)nc3cc(OCCCCCCCC4CCC(c5ccccc5)CC4)c(OC)cc23)c1 (stereo partly drawn) [Compound A60, (R)-6-Methoxy-2-methyl-N-(1-(4-(2-((methylamino)methyl)phenyl)thiophen-2-yl)ethyl)-7-((7-(4-phenylcyclohexyl)heptyl)oxy)quinazolin-4-amine]
0.93	0.66	0.72	0.41	2	CNCc1ccccc1-c1csc([C@H](C)Nc2nc(C)nc3cc(OCCCCCCC(=O)N4CCCCC4)c(OC)cc23)c1 [Compound A69, (S)-7-((6-Methoxy-2-methyl-4-((1-(4-(2-((methylamino)methyl)phenyl)thiophen-2-yl)ethyl)amino)quinazolin-7-yl)oxy)-1-(piperidin-1-yl)heptan-1-one]
1.2	0.53	0.54	0.44	0.59	CNCc1ccccc1-c1csc([C@@H](C)Nc2nc(C)nc3cc(OCCCCCCCN4CCC(C(F)(F)F)CC4)c(OC)cc23)c1 [Compound A67, (R)-6-Methoxy-2-methyl-N-(1-(4-(2-((methylamino)methyl)phenyl)thiophen-2-yl)ethyl)-7-((7-(4-(trifluoromethyl)piperidin-1-yl)heptyl)oxy)quinazolin-4-amine]
1.7	1.3	0.69	1	3.5	CNCc1ccccc1-c1csc([C@@H](C)Nc2nc(C)nc3cc(OC)c(OC)cc23)c1 [reference compound]
1.1	0.53	0.34	0.38	0.68	CNCc1ccccc1-c1csc([C@H](C)Nc2nc(C)nc3cc(OCCCCCCCN4CCN(C(C)=O)CC4)c(OC)cc23)c1 [Compound A65, (S)-1-(4-(7-((6-Methoxy-2-methyl-4-((1-(4-(2-((methylamino)methyl)phenyl)-thiophen-2-yl)ethyl)amino)quinazolin-7-yl)oxy)heptyl)piperazin-1-yl)ethan-1-one]
1.4	0.68	0.45	0.46	1.1	CNCc1ccccc1-c1csc([C@@H](C)Nc2nc(C)nc3cc(OCCCCCCCN4CCN(C(C)=O)CC4)c(OC)cc23)c1 [Compound A64, (R)-1-(4-(7-((6-Methoxy-2-methyl-4-((1-(4-(2-((methylamino)methyl)phenyl)-thiophen-2-yl)ethyl)amino)quinazolin-7-yl)oxy)heptyl)piperazin-1-yl)ethan-1-one]
3.2	3.6	2.5	3.4	5.1	COc1cc2nc(C)nc(N[C@H](C)c3cccc(Br)c3)c2cc1OC [reference compound]
> 10	> 10	> 10	> 10	> 10	COc1cc2nc(C)nc(N[C@H](C)c3cccc(C(F)(F)CO)c3)c2cc1OC [reference compound]
